Assay: Dissolution of dental calculus by immersion (weight after treatment)

**Q.** With `O=C(O)CC(O)(CC(=O)O)C(=O)O` [citric acid] as the compound, how does the “weight of dental calculus after the treatment” value (“weight of dental calculus” for short) (1.3 mg calculus immersed 13 minutes in 1 ml of 10% aqueous solution) read?
**A.** 0.65 mg

**Q.** With `O=C([O-])CN(CCN(CC(=O)[O-])CC(=O)O)CC(=O)O.[Na+].[Na+]` [disodium edetate] as the compound, how does the “weight of dental calculus” value (0.50 mg calculus immersed 44 minutes in 1 ml of 14.3% solution) read?
**A.** 0.25 mg

**Q.** For `O=C(O)CO` [glycolic acid], which “weight of dental calculus” value (0.9 mg calculus immersed 9 minutes in 1 ml of 10% aqueous solution) is on record?
**A.** 0.5 mg

**Q.** For `O=C(O)CC(O)C(=O)O` (stereo not shown) [malic acid], which “weight of dental calculus” value (1.2 mg calculus immersed 13 minutes in 1 ml of 10% aqueous solution) is on record?
**A.** 0.6 mg

**Q.** With `O=P(O)(O)O` [phosphoric acid] as the compound, how does the “weight of dental calculus” value (1.2 mg calculus immersed 7 minutes and 30 seconds in 1 ml of 10% aqueous solution) read?
**A.** 0.6 mg

**Q.** What about the “weight of dental calculus” value (1.4 mg calculus immersed 8 minutes and 30 seconds in 1 ml of 2% aqueous solution) of the same compound?
**A.** 0.7 mg

**Q.** With `O=P(O)(O)O[C@H]1[C@H](OP(=O)(O)O)[C@@H](OP(=O)(O)O)[C@H](OP(=O)(O)O)[C@@H](OP(=O)(O)O)[C@H]1OP(=O)(O)O` [phytic acid] as the compound, how does the “weight of dental calculus” value (3.0 mg calculus immersed 5 minutes in 1 ml aqueous solution containing 0.5 g phytic acid (15% aqueous solution)) read?
**A.** 2.6 mg

**Q.** And the “weight of dental calculus” value (3.0 mg calculus immersed 10 minutes in 1 ml aqueous solution containing 0.5 g phytic acid (15% aqueous solution))?
**A.** 2.1 mg

**Q.** For `O=P(O)(O)OP(=O)(O)O` [pyrophosphoric acid], which “weight of dental calculus” value (2.2 mg calculus immersed 7 minutes in 1 ml of 10% aqueous solution) is on record?
**A.** 1.1 mg

**Q.** With polyphosphoric acid as the compound, how does the “weight of dental calculus” value (1.5 mg calculus immersed 7 minutes and 30 seconds in 1 ml of 10% aqueous solution) read?
**A.** 0.7 mg
